# Patent US11982671B2, “Identification of a T cell epitope of Prevotella copri that induces T cell responses in patients with rheumatoid arthritis” (priority 2016, dated 2024)
# B1: GNS: recombinant human N-acetylglucosamine-6-sulfatase (Novoprotein) (protein)
# chain: VFGVAAGTRRPNVVLLLTDDQDEVLGGMTPLKKTKALIGEMGMTFSSAYVPSALCCPSRASILTGKYPHNHHVVNNTLEGNCSSKSWQKIQEPNTFPAILRSMCGYQTFFAGKYLNEYGAPDAGGLEHVPLGWSYWYALEKNSKYYNYTLSINGKARKHGENYSVDYLTDVLANVSLDFLDYKSNFEPFFMMIATPAPHSPWTAAPQYQKAFQNVFAPRNKNFNIHGTNKHWLIRQAKTPMTNSSIQFLDNAFRKRWQTLLSVDDLVEKLVKRLEFTGELNNTYIFYTSDNGYHTGQFSLPIDKRQLYEFDIKVPLLVRGPGIKPNQTSKMLVANIDLGPTILDIAGYDLNKTQMDGMSLLPILRGASNLTWRSDVLVEYQGEGRNVTDPTCPSLSPGVSQCFPDCVCEDAYNNTYACVRTMSALWNLQYCEFDDQEVFVEVYNLTADPDQITNIAKTIDPELLGKMNYRLMMLQSCSGPTCRTPGVFDPGYRFDPRLMFSNRGSVRTRRFSKHLL
# B2: citrullinated GNS: recombinant GNS citrullinated in vitro with rhPAD-4 (protein)
# chain: B1 chain
# B3: FLNA: recombinant human filamin A (Novusbio) (protein)
# chain: GAPGPGPADASKVVAKGLGLSKAYVGQKSSFTVDCSKAGNNMLLVGVHGPRTPCEEILVKHVGSRLYSVSYLLKDKGEYTLVVKWGDEHIPGSPYRVVVP
# B4: citrullinated FLNA: recombinant filamin A citrullinated in vitro with rhPAD-4 (protein)
# chain: B3 chain
# Tests used:
# PBMC from RA patients [1] = test: IFN-γ/IL17 Double-Color ELISpot with GNS, FLNA and microbial peptides; assay type: cell-based, human; details: 24 NORA patients, single peptide 1 μM
# Procedure: Enzyme-linked immunospot (ELISpot) T cell assay. A detailed description of the methods for isolation and identification of HLA-DR presented peptides is given in previous publications (19, 20). In the current study, all non-redundant HLA-DR-presented peptides identified from patient RA1 were synthesized (Mimotopes, Australia) and tested for reactivity in sets of 3 (1 μM of each peptide) with the patient's PBMC using IFN-γ ELISpot assays. […] For testing in larger numbers of patients and control subjects who would have a range of HLA-DR genotypes, the original peptides identified from the patient (shown in bold) and 3 additional promiscuous peptides that were predicted to bind>16 HLA-DR molecules were synthesized and HPLC-purified in the MGH Core Facility. The sequences of the GNS peptides were as follows: 47PNVVLLLTDDQDE59 (SEQ ID NO: 13), 222FEPFFMMIATPAPH235 (SEQ ID NO: 14), 451TYACVRTMSALWNLQ465 (SEQ ID NO: 15), 504NYRLMMLQSCSGPTC518 (SEQ ID NO: 16). The sequences of the FLNA peptides were as follows: 73DGLRLIALLEVLSQKK88 (SEQ ID NO: 17), 118SIKLVSIDSKAIVDG132 (SEQ ID NO: 18), 416VEVVIQDPMGQKG428 (SEQ ID NO: 19), 2446NPAEFVVNTSNAGAG2460 (SEQ ID NO: 20).
# To assess microbial sequence homology with the GNS peptide 222FEPFFMMIATPAPH235 (SEQ ID NO: 21), the following microbial peptides were tested: 231KKPFFMMVAMNPPH245 (SEQ ID NO: 22), which was derived from the arylsulfatase protein of Prevotella sp. (WP_062433009.1) and 247DVPFFMMWTTPLPH261 (SEQ ID NO: 23), derived from the N-acetylgalactosamine-6-sulfatase of Parabacteroides sp. (WP_046148720.1).
# To evaluate the microbial sequence homology for the FLNA peptide 2446NPAEFVVNTSNAGAG2460 (SEQ ID NO: 24), the following microbial peptides were tested: 133QGFVVKTANAGAL146 (SEQ ID NO: 25), which was derived from an uncharacterized protein of Prevotella sp. (WP_028897633.1) and 90ANFMINVSNAGAL103 (SEQ ID NO: 26), derived from an uncharacterized protein of Butyricimonas sp. (WP_065219401.1). The RA patients' PBMC were stimulated with the pool of peptides or single peptides, and analyzed for reactivity with a human IFN-γ/IL17 Double-Color ELISpot kit (Cellular Technology Limited). All peptides (1 μM) were tested in duplicate wells, as were positive (phytohemagglutinin) and negative (no antigen) control samples. After 5 days, cells were transferred to ELISpot plates coated with IFN-γ/IL17 antibodies, and incubated overnight. Images of wells were captured using ImmunoSpot series 3B analyzer, and spots were counted using ImmunoSpot software. A positive T cell response was defined as 3 standard deviations (SD) above the mean value of healthy control subjects.
# PBMC from RA patients [2] = test: IFN-γ/IL-17 ELISpot T cell assay with Pc-p27 peptides; assay type: cell-based, human
# Description: Enzyme-linked immunospot (ELISpot) T cell assay. A detailed description of the methods for isolation and identification of HLA-DR presented peptides is given in Seward et al., 2011. In initial experiments in this study, one microbial peptide (^2KRIILILTVLLAMLGQVAY^20)(SEQ ID NO: 6) derived from a 27 kDa P. copri protein (WP_022121928.1) was identified from the PBMC of one RA patient. This P. copri peptide and 2 additional peptides from the same protein, which were predicted to be promiscuous T cell epitopes (^52DYRGYWTMRYQFDSATVS^69 (SEQ ID NO: 7), ^118EKINSLPTSSTGI^130 (SEQ ID NO: 8)), were synthesized and HPLC-purified in the Core Proteomics Laboratory at MGH. […] Cells were then transferred to Dual Color ELISpot plates coated with IFN-γ/IL17 antibodies (Cellular Technology Limited), and incubated overnight at 37° C. Images of wells were captured using ImmunoSpot series 3B analyzer, and spots were counted using ImmunoSpot software. A positive T cell response was defined as 3 standard deviations (SD) above the mean value of healthy subjects.
# [3] = test system: serum IgG and IgA autoantibodies; test: ELISA for serum IgG and IgA anti-GNS and anti-FLNA autoantibodies; assay type: binding, human; details: for patients with IgA antibody responses >3 SD above HC: 101 RA patients; for patients with IgG antibody responses >3 SD above HC: 101 RA patients (NORA and CRA), serum diluted 50-fold; for IgG antibody responses to citrullinated versus uncitrullinated protein: 46 RA patients, protein citrullinated in vitro with rhPAD4
# Procedure: ELISA for serum IgG and IgA anti-GNS and anti-FLNA autoantibodies. ELISA plates were coated with 0.5 μg/ml of recombinant human N-acetylglucosamine-6-sulfatase (Novoprotein, Summit, N.J.) or filamin A (Novusbio, Littleton, Colo.) overnight at 4° C. Subsequent incubations and washes were performed at room temperature. After washing with phosphate buffered saline with 0.05% Tween-20 (PBST), the plates were blocked with blocking buffer (5% nonfat dry milk in PBST) for one hour. Afterwards, 100 μl of each patient's serum sample (diluted 50-fold) was added in duplicate wells for 1.5 hours, followed by horseradish-peroxidase (HRP)-conjugated goat anti-human IgG (sc-2453, Santa Cruz Biotech) or HRP-conjugated goat anti-human IgA (Bio-Rad, Hercules, Calif.), and then TMB substrate (BD, San Diego, Calif.). For inter-plate standardization, 2 control samples were included with each assay.
# In vitro citrullination assay. Human recombinant N-acetylglucosamine-6-sulfatase (2 μg) or filamin A (2 μg) were incubated with rhPAD-4 (400 ng), generously provided by Maximilian Koenig from the laboratory of Felipe Andrade, in 1M Tris (pH 7.6) in presence of 200 mM CaCl2. A negative control reaction was performed substituting 200 mM CaCl2 with 200 mM EDTA. Incubation was performed at 37° C. for 3 hours. Protein citrullination was determined by anti-modified citrulline immunoblotting, according to the recommendations of the manufacturer (Millipore).
molecule,measurement,setting,value
"ANFMINVSNAGAL (Butyricimonas sp. Marseille-P2440) [Butyricimonas peptide, peptide from an uncharacterized protein of Butyricimonas sp]",patients with T cell reactivity >3SD above the mean values in HC,PBMC from RA patients [1],29%
"DVPFFMMWTTPLPH (Parabacteroides sp. HGS0025) [Parabacteroides peptide, peptide from N-acetylgalactosamine-6-sulfatase of Parabacteroides sp]",patients with T cell reactivity >3SD above the mean values in HC,PBMC from RA patients [1],25%
"FEPFFMMIATPAPH (listed as Homo sapiens) [GNS peptide, HLA-DR-presented self peptide from N-acetylglucosamine-6-sulfatase]",patients with T cell reactivity >3SD above the mean values in HC,PBMC from RA patients [1],33%
"KKPFFMMVAMNPPH (Prevotella sp. DNF00663) [Prevotella peptide, peptide from arylsulfatase protein of Prevotella sp., homologous to the GNS peptide]",patients with T cell reactivity >3SD above the mean values in HC,PBMC from RA patients [1],38%
KRIILILTVLLAMLGQVAY (listed as Prevotella copri) [Pc-p27 peptide 1],patients whose PBMC secreted IFN-γ >3 SD above the mean value of HC,"PBMC from RA patients [2]; 40 RA patients (39 NORA + RA1), peptide 1 μM, 5 days",42%
same,T cell reactivity of PBMC from Lyme arthritis patients,"PBMC from RA patients [2]; LA patients, peptide 1 μM",lacked reactivity
same,"patients with IFN-γ response, peptide with or without citrullination","PBMC from RA patients [2]; RA patients, FIG. 1D",44%
same,IFN-γ secreted by patient RA1 T cells relative to background,"PBMC from RA patients [2]; patient RA1 PBMC, peptide 1, 2 and 4 μM, background = no antigen",> 3 times background
NPAEFVVNTSNAGAG [FLNA peptide],patients with T cell reactivity >3SD above the mean values in HC,PBMC from RA patients [1],38%
"QGFVVKTANAGAL (Prevotella sp. HUN102) [corresponding Prevotella peptide, peptide from an uncharacterized protein of Prevotella sp., homologous to the FLNA peptide]",patients with T cell reactivity >3SD above the mean values in HC,PBMC from RA patients [1],42%
B1,patients with IgA antibody responses >3 SD above HC,[3],16%
same,patients with IgG antibody responses >3 SD above HC,[3],32%
same,positive IgG antibody responses in patients with other diseases and healthy controls,"[3]; 106 patients with LA, SpA or CTD, 50 healthy control subjects",none
B2,IgG antibody responses to citrullinated versus uncitrullinated protein,[3],higher
B3,patients with IgA antibody responses >3 SD above HC,[3],15%
same,patients with IgG antibody responses >3 SD above HC,[3],27%
B4,IgG antibody responses to citrullinated versus uncitrullinated protein,[3],not significantly different
